Test results from the NIST ThermoML archive (doi:10.1007/s10765-006-0119-1).
± gives the expanded uncertainty stated by the source.

Settings: 101.33 kPa, Liquid, Oscillating Cup

O=[N+]([O-])[O-].[Na+] [sodium nitrate]
Settings | viscosity [mPa·s]
590.3 K | 2.854 ± 0.11
599.3 K | 2.74 ± 0.11
600 K | 2.658 ± 0.11
600.3 K | 2.638 ± 0.11
613.2 K | 2.437 ± 0.098
640.9 K | 2.155 ± 0.086
653.6 K | 2.05 ± 0.082
673.2 K | 1.811 ± 0.073
676.8 K | 1.768 ± 0.071
691.9 K | 1.719 ± 0.069
709.7 K | 1.627 ± 0.065
714.6 K | 1.537 ± 0.062
732.4 K | 1.564 ± 0.063
752.1 K | 1.43 ± 0.057
